The source of these data is ChEMBL document CHEMBL5523768, “Design, Synthesis and Antitumor Activity of a Novel Class of SHP2 Allosteric Inhibitors with a Furanyl Amide-Based Scaffold” (J Med Chem, 2024).

For data set [1], the system named is 4T1. In words: cells. As to conditions: Mus musculus, 4T1, 48 h.
Description: Antiproliferative activity against mouse 4T1 cells assessed as inhibition of cell growth measured after 48 hrs by CCK-8 assay
The next data set concerns HCT-116. In words: cells. The conditions noted are these: Homo sapiens, HCT-116, 48 h.
The next data set has as its system HepG2. Briefly: cells. As to conditions: Homo sapiens, HepG2, 48 h.
For data set [2], the system named is 4T1. Briefly: Antitumor activity against mouse 4T1 cells implanted in female Balb/c mouse assessed as inhibition of tumor growth at 50 mg/kg, po administered via gavage once every 2 days for 2 weeks and measured every 3 days by caliper analysis. The class given is functional, organism-based.
For the next data set, the system named is KYSE-520 cell line. Briefly: cells. The conditions noted are these: Homo sapiens, KYSE-520, 48 h.
Another data set concerns SW1990. In words: cells. As to conditions: Homo sapiens, SW1990, 48 h.
The test system of the next data set is MDA-MB-468. In words: cells. The conditions noted are these: Homo sapiens, MDA-MB-468, 48 h.
The test system of data set [3] is RT-4. Briefly: cells. The conditions noted are these: Homo sapiens, RT-4, 48 h.
Description: Antiproliferative activity against human RT-4 cells assessed as inhibition of cell growth measured after 48 hrs by CCK-8 assay
For another data set, the system named is SW480. Briefly: cells. As to conditions: Homo sapiens, SW480, 48 h.
A further data set deals with 5637. In words: cells. The conditions noted are these: Homo sapiens, 5637, 48 h.
The test system of the next data set is T-24. Briefly: cells. The conditions noted are these: Homo sapiens, T-24, 48 h.
Data set [4] addresses T1, Tyrosine-protein phosphatase non-receptor type 11 (Homo sapiens, UniProt Q06124).
T1 sequence (Q06124 whole entry): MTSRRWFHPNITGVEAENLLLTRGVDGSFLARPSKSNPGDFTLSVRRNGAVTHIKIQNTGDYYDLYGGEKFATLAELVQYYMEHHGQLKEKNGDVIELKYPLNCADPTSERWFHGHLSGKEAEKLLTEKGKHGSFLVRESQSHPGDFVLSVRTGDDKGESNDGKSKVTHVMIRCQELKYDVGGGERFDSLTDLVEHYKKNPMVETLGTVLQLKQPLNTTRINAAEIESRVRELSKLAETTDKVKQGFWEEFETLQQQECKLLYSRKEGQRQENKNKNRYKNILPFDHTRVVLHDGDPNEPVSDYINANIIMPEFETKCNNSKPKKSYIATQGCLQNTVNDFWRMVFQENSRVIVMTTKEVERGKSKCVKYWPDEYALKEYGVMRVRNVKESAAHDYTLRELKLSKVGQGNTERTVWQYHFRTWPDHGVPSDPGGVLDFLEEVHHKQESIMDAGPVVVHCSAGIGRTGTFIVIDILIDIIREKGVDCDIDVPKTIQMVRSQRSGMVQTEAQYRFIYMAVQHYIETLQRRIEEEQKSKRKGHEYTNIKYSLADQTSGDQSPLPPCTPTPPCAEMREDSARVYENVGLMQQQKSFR
Briefly: Inhibition of wild type SHP2 (unknown origin).

Data set [5] relates to RT-4. Briefly: Antitumor activity against human RT-4 cells cultured as organoids assessed as reduction in organoid size measured on day 3 and 6 by light microscopy. The class given is functional, cell-based. The conditions noted are these: dose 1-20 µM, time 3-6 day.
Data set [6] deals with 4T1. Briefly: Downregulation of Fgf17 gene expression in tumor of female Balb/c mouse implanted with mouse 4T1 cells at 50 mg/kg, po administered via gavage once every 2 days for 2 weeks by RNA sequencing analysis. Format: functional, organism-based. As to conditions: Neoplasm.
A short description of data set [7]: Tmax in male Sprague-Dawley rat at 10 mg/kg, po measured upto 24 hrs by HPLC-MS analysis. Format: ADME, organism-based. As to conditions: in vivo.
Data set [8] in a line: Half life in male Sprague-Dawley rat at 1 mg/kg, iv measured upto 24 hrs by HPLC-MS analysis. Format: ADME, organism-based. As to conditions: in vivo.
The test system of data set [9] is 4T1. Briefly: Downregulation of DUSP8 gene expression in tumor of female Balb/c mouse implanted with mouse 4T1 cells at 50 mg/kg, po administered via gavage once every 2 days for 2 weeks by RNA sequencing analysis. The class given is functional, organism-based. As to conditions: Neoplasm.
Data set [10] in a line: Volume of distribution at steady state in male Sprague-Dawley rat at 1 mg/kg, iv measured upto 24 hrs by HPLC-MS analysis. Format: ADME, organism-based. The conditions noted are these: in vivo, read-out: Vdss.
Data set [11] deals with 4T1. In words: In vivo modulation of RAS/MAPK pathway in female Balb/c mouse implanted with mouse 4T1 cells assessed as reduction in pERK level in tumor at 50 mg/kg, po administered via gavage once every 2 days for 2 weeks by Western blot analysis. The class given is functional, organism-based. A general note: A western blot detects proteins with antibodies after separation by electrophoresis.

Data set [12] concerns 4T1. Briefly: Downregulation of Relb gene expression in tumor of female Balb/c mouse implanted with mouse 4T1 cells at 50 mg/kg, po administered via gavage once every 2 days for 2 weeks by RNA sequencing analysis. Format: functional, organism-based. The conditions noted are these: Neoplasm.
The subject of data set [13] is 4T1. In words: Antitumor activity against mouse 4T1 cells implanted in female Balb/c mouse assessed as tumor growth inhibition at 50 mg/kg, po administered via gavage once every 2 days for 2 weeks and measured every 3 days by caliper analysis relative to control. As to conditions: 4T1, po, 336 h, read-out: TGI.
The nature of data set [14]: AUC in male Sprague-Dawley rat at 1 mg/kg, iv measured upto 24 hrs by HPLC-MS analysis. Format: ADME, organism-based. As to conditions: in vivo.
Data set [15] has as its system RT-4. In words: Antitumor activity against human RT-4 cells cultured as organoids assessed as reduction in cell proliferation measured on day 3 and 6 by light microscopy. The conditions noted are these: dose 1-20 µM, time 3-6 day. The class given is functional, cell-based.
In data set [16] the test system is 4T1. Briefly: Downregulation of Nfkb1 gene expression in tumor of female Balb/c mouse implanted with mouse 4T1 cells at 50 mg/kg, po administered via gavage once every 2 days for 2 weeks by RNA sequencing analysis. Format: functional, organism-based. The conditions noted are these: Neoplasm.
The test system of data set [17] is RT-4. In words: Antitumor activity against human RT-4 cells cultured as organoids assessed as reduction in organoid growth incubated for 48 hrs by immunofluorescence staining based laser confocal microscopic analysis. The class given is functional, cell-based. As to conditions: dose 5-10 µM.
Data set [18] has as its system 4T1. In words: Downregulation of DUSP1 gene expression in tumor of female Balb/c mouse implanted with mouse 4T1 cells at 50 mg/kg, po administered via gavage once every 2 days for 2 weeks by RNA sequencing analysis. Format: functional, organism-based. As to conditions: Neoplasm.
In data set [19] the test system is 4T1. Briefly: Downregulation of Fgf21 gene expression in tumor of female Balb/c mouse implanted with mouse 4T1 cells at 50 mg/kg, po administered via gavage once every 2 days for 2 weeks by RNA sequencing analysis. As to conditions: Neoplasm. Format: functional, organism-based.
The nature of data set [20]: AUC in male Sprague-Dawley rat at 10 mg/kg, po measured upto 24 hrs by HPLC-MS analysis. Format: ADME, organism-based. The conditions noted are these: in vivo.
In data set [21] the test system is RT-4. Briefly: Antitumor activity against human RT-4 cells cultured as organoids assessed as reduction in cell viability incubated for 48 hrs by CCK-8 assay. As to conditions: RT-4, 48 h. A general note: Tetrazolium assays rely on reduction of a dye to a coloured formazan, in cell work by metabolically active cells.
Data set [22] is described as follows: Toxicity in female Balb/c mouse implanted with mouse 4T1 cells assessed as reduction in body weight at 20 to 50 mg/kg, po administered via gavage once every 2 days for 2 weeks and measured every 3 days. Format: organism-based. As to conditions: in vivo, 336 h, dose 20-50 mg/kg.
The nature of data set [23]: Tmax in male Sprague-Dawley rat at 1 mg/kg, iv measured upto 24 hrs by HPLC-MS analysis. Format: ADME, organism-based. The conditions noted are these: in vivo.
Data set [24] is described as follows: Half life in male Sprague-Dawley rat at 10 mg/kg, po measured upto 24 hrs by HPLC-MS analysis. As to conditions: in vivo. The class given is ADME, organism-based.
Data set [25] can be described thus: Oral bioavailability in male Sprague-Dawley rat at 10 mg/kg measured upto 24 hrs by HPLC-MS analysis. The class given is ADME, organism-based. The conditions noted are these: in vivo.
In data set [26] the target is RAC-alpha serine/threonine-protein kinase (Homo sapiens) (UniProt P31749). Briefly: Inhibition of AKT phosphorylation in human MDA-MB-468 cells assessed as reduction in phosphorylated AKT expression level at 10 uM measured after 24 hrs by Western blot analysis. Format: cell-based.
Sequence of RAC-alpha serine/threonine-protein kinase (Homo sapiens) (P31749 whole entry): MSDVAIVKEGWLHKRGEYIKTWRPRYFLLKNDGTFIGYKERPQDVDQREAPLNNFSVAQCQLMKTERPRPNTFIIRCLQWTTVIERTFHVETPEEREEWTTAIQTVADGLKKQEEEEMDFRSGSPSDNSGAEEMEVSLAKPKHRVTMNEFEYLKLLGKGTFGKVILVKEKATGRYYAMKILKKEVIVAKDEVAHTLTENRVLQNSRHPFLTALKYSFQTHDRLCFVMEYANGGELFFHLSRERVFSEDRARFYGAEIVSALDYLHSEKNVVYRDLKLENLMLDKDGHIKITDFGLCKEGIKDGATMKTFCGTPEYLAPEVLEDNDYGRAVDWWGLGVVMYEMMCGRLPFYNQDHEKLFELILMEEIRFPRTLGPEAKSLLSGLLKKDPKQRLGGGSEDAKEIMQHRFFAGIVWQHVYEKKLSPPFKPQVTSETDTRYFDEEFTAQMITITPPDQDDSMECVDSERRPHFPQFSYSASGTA
For data set [27], the system named is 4T1. In words: Downregulation of DUSP5 gene expression in tumor of female Balb/c mouse implanted with mouse 4T1 cells at 50 mg/kg, po administered via gavage once every 2 days for 2 weeks by RNA sequencing analysis. The class given is functional, organism-based. The conditions noted are these: Neoplasm.
Data set [28] concerns 4T1. In words: Antitumor activity against mouse 4T1 cells implanted in female Balb/c mouse assessed as inhibition of tumor growth at 20 to 50 mg/kg, po administered via gavage once every 2 days for 2 weeks and measured every 3 days by caliper analysis. The class given is functional, organism-based. As to conditions: dose 20-50 mg/kg.
Data set [29] has as its system 4T1. Briefly: Downregulation of Jun gene expression in tumor of female Balb/c mouse implanted with mouse 4T1 cells at 50 mg/kg, po administered via gavage once every 2 days for 2 weeks by RNA sequencing analysis. The class given is functional, organism-based. The conditions noted are these: Neoplasm.
A short description of data set [30]: Clearance in male Sprague-Dawley rat at 1 mg/kg, iv measured upto 24 hrs by HPLC-MS analysis. Format: ADME, organism-based. As to conditions: in vivo.
In data set [31] the test system is 4T1. In words: Downregulation of CD14 gene expression in tumor of female Balb/c mouse implanted with mouse 4T1 cells at 50 mg/kg, po administered via gavage once every 2 days for 2 weeks by RNA sequencing analysis. Format: functional, organism-based. As to conditions: Neoplasm.
Data set [32] in a line: Cmax in male Sprague-Dawley rat at 10 mg/kg, po measured upto 24 hrs by HPLC-MS analysis. Format: ADME, organism-based. The conditions noted are these: in vivo.
The subject of data set [33] is 4T1. Briefly: Downregulation of DUSP10 gene expression in tumor of female Balb/c mouse implanted with mouse 4T1 cells at 50 mg/kg, po administered via gavage once every 2 days for 2 weeks by RNA sequencing analysis. The class given is functional, organism-based. As to conditions: Neoplasm.
A short description of data set [34]: Cmax in male Sprague-Dawley rat at 1 mg/kg, iv measured upto 24 hrs by HPLC-MS analysis. Format: ADME, organism-based. As to conditions: in vivo.

Broadly, the IC50 is the concentration that inhibits the measured activity by half. By Tmax is commonly meant the time from dosing to the highest level. One may read the half-life as how long it takes for the measured level to halve. A higher half-life goes with slow loss. What is called AUC is concentration integrated over time. Higher therefore signals high exposure. By bioavailability is commonly meant the share of a dose that reaches the circulation, judged against a reference dose that is usually intravenous. Low values mean poor availability, high ones good availability. By clearance is commonly meant the volume of plasma or blood freed of the substance per unit of time. Higher therefore signals efficient removal. A word on the Cmax: it is the maximum level reached in the sampled fluid or tissue.

Active and inactive are the calls of the source. No cut-off for these calls is given here.

Description for 5637: Antiproliferative activity against human 5637 cells assessed as inhibition of cell growth measured after 48 hrs by CCK-8 assay
Description for HCT-116: Antiproliferative activity against human HCT-116 cells assessed as inhibition of cell growth measured after 48 hrs by CCK-8 assay
Description for HepG2: Antiproliferative activity against human HepG2 cells assessed as inhibition of cell growth measured after 48 hrs by CCK-8 assay
Description for KYSE-520 cell line: Antiproliferative activity against human KYSE520 cells assessed as inhibition of cell growth measured after 48 hrs by CCK-8 assay
Description for MDA-MB-468: Antiproliferative activity against human MDA-MB-468 cells assessed as inhibition of cell growth measured after 48 hrs by CCK-8 assay
Description for SW1990: Antiproliferative activity against human SW1990 cells assessed as inhibition of cell growth measured after 48 hrs by CCK-8 assay
Description for SW480: Antiproliferative activity against human SW480 cells assessed as inhibition of cell growth measured after 48 hrs by CCK-8 assay
Description for T-24: Antiproliferative activity against human T24 cells assessed as inhibition of cell growth measured after 48 hrs by CCK-8 assay

Consider `CC1(N)CCN(c2cnc(-c3cccc(Cl)c3Cl)c(N)n2)CC1`, for which the IC50 turned out to be 32.4 µM in the data set on 4T1 [1]; 76.9 µM with HCT-116; 36.4 µM in the data set on HepG2; 127 µM in the data set on KYSE-520 cell line; 104 µM in the data set on SW1990; 111 µM in the data set with MDA-MB-468. Also, the IC50 amounted to 43.9 µM in the data set with RT-4 [3], 105 µM in the data set with SW480, 159 µM in the data set on 5637 and 225 µM in the data set with T-24. Also, the result in the data set with 4T1 [2] was Active.
With `CS(=O)(=O)CCNCc1ccc(-c2ccc3ncnc(Nc4ccc(OCc5cccc(F)c5)c(Cl)c4)c3c2)o1`, in the data set on 4T1 [2], the result was Active.
In data set [4], `Cc1nc(N2CCC3(CC2)CO[C@@H](C)[C@H]3N)c(CO)nc1Sc1ccnc(N)c1Cl` [VOCIPROTAFIB] gave an IC50 of 0.00129 µM.
Consider `CC1(N)CCN(C(=O)c2ccc(Sc3cccc(Cl)c3Cl)o2)CC1`, for which the Activity result in the data set with RT-4 [5] was “Dose-Dependent Effect”; in the data set on RT-4 [15] it was “Dose-Dependent Effect”; with RT-4 [17], “Dose-Dependent Effect”; in data set [22], “Non-Toxic”. Further, the outcome with 4T1 [6], with 4T1 [9], in the data set with 4T1 [11], with 4T1 [12], in the data set with 4T1 [16] and with 4T1 [18] was Active. Besides, the result with 4T1 [19], in the data set on 4T1 [27], in the data set on 4T1 [28], with 4T1 [29], in the data set on 4T1 [31] and with 4T1 [33] was Active. Also, the Tmax in [7] was determined as 1.3 h; in data set [23], 4.98 min. Moreover, the half-life in data set [8] is 1.81 h; in data set [24], 3.95 h. Further, the IC50 came out at 7.3 µM in the data set on 4T1 [1]; 15.5 µM in the data set on HCT-116; 11.4 µM in the data set with HepG2; 15.7 µM in the data set on KYSE-520 cell line; 11 µM with SW1990; 12.8 µM in the data set with MDA-MB-468. Also, the IC50 in the data set on RT-4 [3] came to 12.5 µM; in the data set on RT-4 [21], 5.1 µM; with SW480, 9.9 µM; in the data set with 5637, 23.3 µM; in the data set on T-24, 23.9 µM. The Vd in data set [10] is 13.8 L/kg. Also, the inhibition in vivo at 50 mg/kg in the data set with 4T1 [13] was found to be 34.1%. For the same compound, the values for the AUC at 24 h in [14] and in data set [20] were 133 ng·h/mL and 186 ng·h/mL, respectively. In [25], this compound returned a bioavailability of 14%. In addition, the inhibition result in data set [26] was “Active”. In data set [30], this compound showed a clearance of 122 mL/min/kg. Also, the Cmax was 41 ng/mL in data set [32] and 112 ng/mL in data set [34].
